In data set [1] the target is T1, BCL6 BTB domain (Homo sapiens, UniProt P41182).
T1 construct: the tag was removed by HRV-3C protease treatment, generating a simpler BCL6 5–129 product; Thioredoxin (N, cleaved yes); 6His (N, cleaved yes); made in house; host or cells: E. coli BL21-AI
In words: Fluorescence polarisation (FP) competition assay with BCOR-AF633 peptide. It counts as biochemical. Particulars: repurchased hits. Here is the method: A modified BCOR peptide containing a C-terminal cysteine, labelled with Alexa Fluor (AF)633 C5 maleimide ([…]-Cys(AF633)-amide) was obtained from Cambridge Research Biochemical. For high throughput screening, the assay was miniaturized from 10 µL in Perkin Elmer 384-well black Proxi Plus plates to 4 µL in Labcyte 1536-well black low dead volume LP-0410 plates. Each complete reaction (a modified version from[9],[17]) contained 20 mM Hepes/NaOH pH 8.0, 150 mM NaCl, 0.5 mM tris(2-carboxyethyl)phosphine (TCEP), 0.05% (v/v) Tween 20, 10 nM BCOR-AF633 peptide, 3 µM BCL6 BTB and 1–2% (v/v) DMSO. At this protein concentration, we recorded a FP signal of 80 to 90 mP, corresponding to about 55% BCOR-AF633 bound to the BCL6 BTB domain. Compounds and control BCOR peptide were dispensed using an Echo550 acoustic dispenser (Beckman Coulter). Protein and peptide reagents were added using a Multidrop combi (Thermo Scientific) or a Tempest v2 (Formulatrix). After 2 h incubation at room temperature, plates were read on an Envision plate reader (Perkin Elmer) with excitation and emission wavelengths of 620 nm and 688 nm, respectively, or Pherastar FSX (BMG Labtech) with FP filters module 590-50/675-50/675-50. […] As a low signal control, we used either the maximal inhibition by BCOR in the HTS campaign, or the signal obtained from the probe in the absence of BCL6 for IC50 determination. IC50 values were calculated using a sigmoidal dose–response (variable slope) four- parameter equation. Beside the FP measurement, the total fluorescence intensity (TFI) was recorded to allow identification of interfering compounds (TFI > 110% control)[26].

Data set [2] deals with T2, Trx-6His-BCL6 BTB (Homo sapiens, UniProt P41182).
T2 construct: made in house; host or cells: E. coli BL21-AI
In words: TR-FRET assay, Trx-6His-BCL6 BTB / BCOR-A633 peptide. Type of data set: biochemical. Here is the method:
Each 15 µL TR-FRET reaction in 384-well black Proxiplate (Perkin Elmer) contained 1 or 10 nM Trx-6His-BCL6 BTB, 300 nM BCOR-A633 and 0.5 or 1 nM anti-6His-Terbium cryptate (Perkin Elmer), in the FP assay buffer (25 mM Hepes pH 8, 100 mM NaCl, 0.05% (v/v) Tween20, 0.5 mM TCEP), supplemented with 0.05% (w/v) bovine serum albumin. Test compounds in DMSO or DMSO alone were added to the wells using and Echo 550 acoustic dispenser to give the appropriate test concentration in 0.7% v/v DMSO final. After a 2 h incubation at room temperature, the plates were read on an Envision plate reader or a Pherastar FSX plate reader with 337 nm laser excitation, a first emission filter at 665 nm and a second emission filter at 615 or 620 nm. Data were normalised and IC50 determined as described above for the FP assay.
A general note: TR-FRET usually uses a lanthanide donor and a delayed reading to cut background.

Data set [3] deals with T3, BCL6 BTB (Homo sapiens, UniProt P41182).
T3 construct: the tag was removed by HRV-3C protease treatment, generating a simpler BCL6 5–129 product; Thioredoxin (N, cleaved yes); 6His (N, cleaved yes); made in house; host or cells: E. coli BL21-AI
In words: Thermal shift assay (TSA). It counts as binding. To be noted: measured at 200 and 400 µM compound; binder if ≥ 1 °C. The method, then: Thermal shift assays were performed in 4titude FrameStar (Part No. 4ti-0385) 384 well skirted PCR plates: each well contained 10 µL of sodium acetate pH 6 buffer, 100 mM NaCl, 0.5 mM TCEP, 10 µM BCL6 BTB and 20 × Sypro Orange dye (Life Technologies), with or without inhibitor compound (100–400 µM) at 4% (v/v) final DMSO concentration. Plates were heated on a Biorad CFX384 real time thermocycler with a temperature gradient from 10 to 95 °C with a 0.5 °C increment, 0.15 s/cycle. Data were processed using Vortex (Dotmatics): a shift of the BCL6 BTB melting temperature (ΔTm) of + 1 °C or more was classed as indicative of BCL6 compound binding.

The target of data set [4] is T1, BCL6 BTB domain. In words: Surface plasmon resonance (SPR).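 Further: Fail means no measurable KD from unsaturated curves poor sensorgrams or non-1:1 stoichiometry.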 It counts as binding. Particulars: immobilised BCL6 BTB, pH 6.0, 1:1 equilibrium model. The method, then: All surface plasmon resonance (SPR) experiments were carried out on a Biacore T200 (Cytiva) and amine coupling chemistry was used to immobilise the protein on a research grade CM5 sensor chip. The running buffer consisted of 100 mM sodium acetate, 100 mM sodium chloride, and 1 mM TCEP at pH 6.0. The chip’s surface was activated for 10 min using a 1:1 mixture of 100 mM N-hydroxysuccinimide and 400 mM 1-ethyl-3-(3-dimethylaminopropyl)-carbodiimide. BCL6 BTB protein was injected for 20 min at a concentration of 100 µg/mL in a 10 mM sodium acetate buffer (pH 5.5). Finally, the surface was blocked via an injection of 1 M ethanolamine pH 8.5 for 7 min. The flow rate was maintained at 10 µL/min for all the above procedures and ~ 10,000 response units (RU) of BCL6 was immobilised on the chip. Flow cell one was left unmodified as the reference surface.
Following protein immobilisation, the running buffer was changed to 100 mM sodium acetate, 100 mM sodium chloride, 1 mM TCEP, 0.05% Tween20 (v/v), 5% DMSO at pH 6.0.
All compound handling was performed on an ECHO 550 acoustic liquid dispenser and compounds were added to 384-well polypropylene V-bottomed plates (Greiner), which became the sample plates for the SPR. […] The flow rate was 30 µL/min, the injection time for the samples was 60 s, and the dissociation time was 60 s. The surface was not regenerated between sample injections. KD values were calculated from the Langmuir plot under equilibrium conditions using the 1:1 binding model in the Biacore software version 2 (Cytiva).
(In general: SPR reads the build-up and loss of mass on a sensor chip optically.)

For data set [5], the target named is T3, BCL6 BTB. Description: 19F ligand-observed NMR TFA-WVIP-NH2 peptide displacement assay. Type of data set: binding. Here is the method:
Each 180 µL ^19F-NMR peptide displacement assay contained 20 mM HEPES buffer pH 8, 100 mM NaCl, 0.5 mM TCEP, 10% D2O, 200 µM reporter TFA-WVIP-NH2, with or without 200 µM compound (4% D6-DMSO final) and 6 µM BCL6 BTB. Each 180 µL sample reaction was prepared in a 96-well plate and 170 µL transferred to a 3 mm NMR tube (Bruker, Part No. Z112272) using a Gilson liquid handler GX-281. NMR data were collected on a Bruker […] 500 MHz spectrometer equipped with a 5 mm BBFO probe. Data were acquired and processed using Bruker Topsin 2.1. The recovery of the reporter NMR signal upon addition of compound indicates competitive binding at the same site as the TFA-WVIP-NH2 tetrapeptide on the protein. We quantified the extent of recovery of NMR signal in % of reporter displacement[42]: \% displacement=Ireporter(+protein+compound)-Ireporter(+protein)/Ireporter(-protein)-Ireporter(+protein)X100\%

Data set [6] in a line: NMR kinetic solubility. It counts as physicochemical. Particulars: 500 µM final compound concentration, 20 mM HEPES buffer pH 8, 2% or 5% DMSO. Here is the method:
(§1) Solubility measurements by quantitative ^1H-NMR or HPLC method were performed as described previously.

Data set [7] is described as follows: PAMPA passive permeability. Particulars: pH 7.4. It counts as in vitro ADME. Further details: PAMPA pH7.4: unit not given here. The method, then: Passive diffusion permeability was measured using a parallel artificial membrane permeability assay (PAMPA). The assay used an artificial membrane consisting of 2% (v/v) phosphatidyl choline in dodecane (Sigma Aldrich, Dorset, UK). The donor plate was a MultiScreen-IP Plate with a 0.45 µm hydrophobe Immobilon-P membrane (Millipore, UK) and the acceptor plate was a MultiScreen 96-well transport receiver plate (Millipore, UK). The permeability of test compound (10 µM) was measured at pH 7.4 in buffer containing 1% (w/v) Bovine Serum Albumin (Sigma Aldrich, Dorset, UK) following a 16 h incubation at 30 °C. After transfer and centrifugation, sample supernatants were diluted and analysed using a Waters (Milford, MA, US) TQ-S LC-MS/MS system. Permeability values (cm/s) were calculated using the following equation, where VD and VA are the volumes of donor and acceptor, respectively, and area is the surface area of the membrane x porosity: Papp=C x ln1-Drugacceptor/Drugequilibrium,whereC=VDxVA/VD+VAx area x time
(The PAMPA barrier holds no transporters, so it reflects passive diffusion.)

Data set [8] in a line: Caco-2 efflux ratio. It counts as in vitro ADME. To be noted: human.
A short description of data set [9]: HPLC aqueous solubility. It counts as physicochemical. Particulars: aqueous buffer, kinetic from dmso stock; PBS buffer pH 7.4, 1% DMSO, maximum targeted concentration 100 µM; read-out: HPLC Sol. The method, then:
as §1

Data set [10] addresses T4, ePL-tagged BCL6 BTB in HEK293T cells (Homo sapiens, UniProt P41182).
T4 construct: BCL6 BTB domain (HDSD51 plasmid construct encoding amino-acids 14–135) fused to a C-terminal ePL tag; expressed in transfected cells; host or cells: HEK293T
Description: InCELL Hunter cellular target engagement assay. Type of data set: cell-based. Here is the method: BCL6 cellular target engagement assays were established using the InCELL Hunter™ Target Engagement Kit from DiscoverX-Eurofin. For the assay, the expressed protein comprised the N-terminal truncated region of BCL6 BTB domain (HDSD51 plasmid construct encoding amino-acids 14–135) fused to a C-terminal ePL tag (enhanced ProLabel, DiscoverX). Constructs were transfected over 24 h in HEK293T cells using Lipofectamine 3000 (ThermoFisher Scientific) and 2.5 × 10^5 transfected cells / well in phenol red-free OptiMEM medium (ThermoFisher Scientific) were re-plated in 384 assay plates before treating with compounds for 6 h. To complete the assay, cells were incubated for 30 min at room temperature with the InCell Hunter assay reagents mix following the manufacturer’s instructions, before reading the chemiluminescent signal on an Envision (Perkin Elmer) plate reader.

Data set [11] concerns the target T5, full-length BCL6/SMRT protein–protein interaction in HEK293T cells (Homo sapiens, UniProt P41182).
T5 construct: DNA encoding full length BCL6 and SMRT was inserted into pFC32K NanoLuc and pFC14K HaloTag vectors; expressed in transfected cells; host or cells: HEK293T
Description: NanoBRET cellular assay. It counts as cell-based.

[12] abbreviates: 1 or 10 nM Trx-6His-BCL6 BTB, read-out: TR-FRET IC50.

Results on three compounds are retold here after article PMC9633773, “Discovering cell-active BCL6 inhibitors: effectively combining biochemical HTS with multiple biophysical techniques, X-ray crystallography and cell-based assays” (Scientific Reports, 2022).

In brackets after ≈: the same amount, converted by molar mass. Read-outs that look alike come from different tables or passages of the source.

The IC50 is the point on the concentration scale where inhibition reaches its midpoint. The Kd is a measure of binding affinity in units of concentration. Turning to `N#Cc1c(NCc2ccccc2)ccnc1Cl` [Compound 21], the “FP pIC50 Mean” value in data set [1] amounted to 3.92. For the same compound, the IC50 in [1] (up to 2 mM, n=1-6, read-out: FP IC50 Geometric Mean) came out at 120 µM; in data set [2] (setting [12]), 70 µM. Besides, the “TSA Tm (thermal shift)” value in [3] is 1-2 ºC. This compound yielded a dissociation constant Kd in [4] of 81 µM. The “19F LO-NMR, % peptide displaced” value in data set [5] (200 µM compound, 200 µM TFA-WVIP-NH2, 6 µM BCL6 BTB, mean ± SD, n=2, hit if ≥ 30%) is 63 ± 7%. Besides, the “Displacement of BCL6-bound TFA-WVIP-NH2 peptide (recovery of fluorine signal)” value in data set [5] (Figure 3A, qualitative) is reported as “able to displace”. Also, the “Sol. (NMR kinetic solubility)” value in [6] stood at 72 µM.

Usually efflux ratio stands for the permeability from basolateral to apical divided by that in the opposite direction, in the common usage. For the compound `CC(C)OC(=O)c1cc(Nc2ccc3c(c2)CC(=O)N3C)n2nccc2n1` [Compound 25, isopropyl 7-((1-methyl-2-oxoindolin-5-yl)amino)pyrazolo[1,5-a]pyrimidine-5-carboxylate], in data set [2] (setting [12]), the IC50 is 2.1 ± 0.1 µM. Besides, the Papp at 16 h, 10 µM in data set [7] (PAMPA, read-out: PAMPA passive cell permeability) stood at 110 ×10⁻⁶ cm/s. Moreover, the efflux ratio in [8] is 0.72.

In general, EC50 refers to the concentration at which the effect is half-maximal. On to `CNC(=O)c1cc(Nc2ccc3c(c2)n(CCC(C)(C)O)c(=O)n3C)c(C#N)c(Cl)n1` [Compound 27], for which the IC50 in [2] (1 nM BCL6 BTB domain, geometric mean n=3–5, read-out: TR-FRET Geo Mean IC50) worked out at 0.5 µM; in data set [11] (BCL6.NanoLuc/SMRT.HaloTag configuration, HEK293T, 6 h, geometric mean n=3–4, read-out: Nano BRET Geo Mean IC50), 2.93 µM; in [11] (Figure 7B, C-terminally NanoLuc tagged BCL6 / SMRT.HaloTag, read-out: NanoBRET IC50, BCL6.NanoLuc), 3 µM. Moreover, the solubility kinetic in [9] is 80 µM (≈ 35.4 µg/mL). Further, the EC50 in data set [10] (Figure 6B, ePL-tagged BCL6 BTB 14–135, 6 h, n=3, read-out: InCELL Hunter EC50) was 24 ± 9 µM; in [10] (Table S3, C-terminally ePL-tagged BCL6 BTB 14-135, 6 hours, read-out: InCELL Geomean EC50), 23.7 µM. In addition, the “NanoBRET inhibition, HaloTag.BCL6/NanoLuc.SMRT combination” value in [11] (BCL6 N-terminally fused to HaloTag) is “only very weak inhibition”. The “PAMPA pH7.4” value in data set [7] came out at 19.
